# Experimental data taken from US20260256799A1, “INHIBITORS FOR TREATING SOLID TUMOURS” (UNIVERSITY OF SOUTHAMPTON, priority 2023, published 2026).
# Test system: HNSCC and NSCLC CAF
# Experiment: Established myoCAF phenotype of CAF cultured ex vivo
# Type: cell-based, human
# Protocol: Human NSCLC cell line H441, HNSCC SCC25, murine cancer cell line TC-1 (lung), MC38 (colon) and human fetal foreskin fibroblasts HFFF2 were purchased from European Collection of Cell Cultures (Public Health England) or ATCC; HNSCC 5PT [32] were provided by l. Mackenzie (Queen Mary University of London, UK). HEK-293T cells and IMR90 lung fibroblasts were provided by Jesus Gil (Imperial College, London, UK). SCC25 were grown in Ham's F12:DMEM (1:1 ratio) medium with 10% FBS (Calbiochem) and 292 μg/ml L-Glutamine. 5PT were cultured in keratinocyte growth medium. HEK-293T, H441, MC38, HFFF2, IMR90 and primary fibroblasts were grown in DMEM supplemented with 10% FBS and 292 μg/ml L-Glutamine. Primary fibroblasts were isolated as previously used at early passage (p1-10). C57BL/6 murine normal lung and colon fibroblasts (MLF and MCF respectively) were grown at 3% oxygen. TC-1 were cultured in RPMI supplemented with 10% FBS and 292 μg/ml L-Glutamine. All cell cultures were routinely tested for mycoplasma contamination. All cells were cultured using standard cell culture plates/flasks (Corning). HFFF2 or IMR90 cells were transfected with 25 μM On-Target pool siRNA (Thermo Scientific/Dharmacon) using Oligofectamine reagent (Life Technologies) as described. Stable knockdown was performed using retro/lentiviral mediated transduction of shRNA plasmids, as previously described followed by cell selection using 1 μg/ml puromycin for 5-7 days. NOX4-inducible HEK-293 cells (kindly provided by Vincent Jaquet) were treated with 1 μg/ml doxycycline. Wild type and mutant (C2991L) ATM over-expression was carried out transfecting HFFF2 with Viafect (Promega) according to manufacturer's instructions and selected for 10 days with 4 mg/ml G418. p-Retrosuper-shATM (ATM #1:912) and pCDNA3.1-Flag-mut-ATM (C2991L; pTP1625 clone) were kindly provided by Yosef Shiloh and Tanya Paull respectively. pLKO.1 murine shATM (TRCN0000012643) and pCDNA3.1-Flag-wt-ATM (31985) were purchased from Sigma and Addgene respectively. 2 ng/ml TGF-3 (TGF-β1; R&D Systems; for 3 days) was used to induce myofibroblast differentiation. 10 ng/ml IL-1pR (R&D Systems) for 72 hours was used to induce iCAF differentiation. […] All the inhibitors were resuspended in DMSO. To trigger DDR activation and/or cell stress HFFF2 were either irradiated with 2-100Gy using 350Kv X-Ray Irradiation System (Faxitron), or treated with 100 ng/ml Neocarzinostatin for 2 hours (NCS; Sigma), with 2-10 mM H2O2(Fisher Scientific) or with 5 μg/ml Cisplatin (Sandoz) for 30 minutes.
# Cells were lysed in ice-cold RIPA buffer [1% NP40, 150 mM NaCl, 25 mM Tris-HCl pH 7.5, 0.1% SDS, 1% Na-Deoxycolate, 1 mM EGTA, 1 mM EDTA, 1 mM Na-orthovanadate, 10 mM Na-fluoride, 2.5 mM Na-pyrophosphate, 1 mM p glycerophosphate+freshly added 1 mM PMSF, 20 mM N-Ethylmaleimide (NEM), 10 ng/ml Microcystin-LR, 0.12 μM Okadaic acid and phosphatase and protease inhibitor cocktails; all from Sigma]. Protein extracts were then centrifuged and supernatants quantified using Dc-Bio-Rad protein assay kit (Bio-Rad laboratories) as previously. For nuclear-cytoplasmic protein extraction, the inventors used NE-PER Reagents according to manufacturer's instructions (Thermofisher). Equal amounts of protein were electrophoresed either in reducing (+Dithiothreitol, DTT) or in non-reducing conditions in 3-8% or 4-12% SDS-PAGE gels and electro blotted as previously.
smiles,measurement,setting,value
CN(C)CCCOc1ccc(-c2ccc3ncc4c(c3c2)n(C2CCOCC2)c(=O)n4C)cn1 [AZD0156],myoCAF differentiation (reversal),"CAF E treated with AZD0156 for 5 days, Q-RT-PCR",reversed
same,reversal of myoCAF differentiation after AZD0156 treatment was discontinued,"CAF E, 5 days AZD0156 then further 5 days without AZD0156",maintained
